Assay results published in the supplement of paper PMC8253809.

Legend:
[1] = system: DIPGX29 (H3.3 K27M diffuse intrinsic pontine glioma line); experiment: EC50 (inflection of fitted growth-inhibition curve) (log10 M)
Procedure, shortened: (§1)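 EC50 and maximal response (yFin) were derived from the lowest-AICc fit, either three- or four-parameter log-logistic. The data were pooled CellTiter-Glo luminescence values, log2-transformed and normalised per plate to % activity between negative (solvent) and positive controls. Patient-derived pHGG/DIPG cell lines and astrocyte controls on 1% Geltrex-coated 384-well plates received a 10-point threefold dilution series (mean top concentration 35 μM) by pin tool, in triplicate, for 7 days (iAstro 3 days) at 37 °C, 5% CO2.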

[2] = system: DIPGX37 (H3.3 K27M diffuse intrinsic pontine glioma line); experiment: as above
Procedure, shortened: as §1

[3] = system: HGGX39 (paediatric high-grade glioma line); experiment: as above
Procedure, shortened: as §1

[4] = system: HGGX6 (H3.3 G34R paediatric high-grade glioma line); experiment: as above
Procedure, shortened: as §1

[5] = system: DIPGX29; experiment: maximal growth inhibition (yFin) relative to DMSO / staurosporine; higher = more efficacious
Procedure, shortened: as §1

[6] = system: DIPGX37; experiment: as above
Procedure, shortened: as §1

[7] = system: HGGX39; experiment: as above
Procedure, shortened: as §1

[8] = system: HGGX6; experiment: as above
Procedure, shortened: as §1

[9] = system: DIPGX29; experiment: area under dose-response curve of % growth inhibition (log2 RLU vs DMSO / staurosporine), 1e-11 to 1e-4 M (% x log10 M); higher = more growth inhibition
Procedure, shortened: (§2)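 Cells were exposed in triplicate for 7 days (iAstro: 3 days) at 37 °C, 5% CO2 to a 10-point series of threefold dilutions with a mean top concentration of 35 μM. These were patient-derived pHGG/DIPG lines plus astrocytes, grown on 384-well plates coated with 1% Geltrex. Readout was CellTiter-Glo luminescence, log2-transformed and set per plate to % activity between solvent and positive controls, from which area under the curve was derived by trapezoid rule on a log-logistic fit or, failing that, a smoothing spline.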

[10] = system: DIPGX37; experiment: as above
Procedure, shortened: as §2

[11] = system: HGGX39; experiment: as above
Procedure, shortened: as §2

[12] = system: HGGX6; experiment: as above
Procedure, shortened: as §2

Row | Structure (SMILES) | EC50 (log10 M) [1] | EC50 (log10 M) [2] | EC50 (log10 M) [3] | EC50 (log10 M) [4] | maximal growth inhibition [5] [%] | maximal growth inhibition [6] [%] | maximal growth inhibition [7] [%] | maximal growth inhibition [8] [%] | area under dose-response curve [9] | area under dose-response curve [10] | area under dose-response curve [11] | area under dose-response curve [12]
1 | COc1ccccc1-c1cc(Nc2cccc(CS(N)(=O)=O)c2)ncn1 | -4.82 | -4.68 | -4.84 | -4.83 | 71.9 | 59.7 | 48.3 | 65.7 | 58.4 | 39.8 | 40.5 | 54.4
2 | Cc1nc(Nc2n[nH]c3c2CN(C(=O)N[C@H](CN(C)C)c2ccccc2)C3(C)C)c2sccc2n1 | -5.45 | -5.56 | -5.22 | -5.66 | 77.2 | 80.1 | 79.6 | 75.5 | 150 | 177 | 120 | 174
3 | Cc1nn(C)c(COc2ccc(N3CCN(S(=O)(=O)N(C)C)CC3)cc2)c1-c1cccc2c(CCCOc3cccc4ccccc34)c(C(=O)O)n(CCN3CCOCC3)c12 | -4.9 | -4.73 |  |  | 92.1 | 110 |  |  | 81.7 | 79.7 | 0 | 4.05
4 | O=C1NCCc2[nH]c(-c3ccncc3)cc21 | -5.62 | -5.9 | -5.41 | -5.81 | 67.8 | 58.9 | 71.2 | 65.9 | 110 | 111 | 98.2 | 124
5 | COc1cc2c(cc1O)CC[C@@H]1[C@@H]2CC[C@]2(C)[C@@H](O)CC[C@@H]12 [2-METHOXYESTRADIOL] | -5.23 | -4.96 | -4.89 | -5.65 | 22.8 | 36.4 | 53 | 23.6 | 40.9 | 48.8 | 47.3 | 38.9
6 | Nc1nccc2c1ncn2[C@@H]1C=C(CO)[C@@H](O)[C@H]1O [3-DEAZANEPLANOCIN] | -7.53 |  |  |  | 21.5 |  |  |  | 76 | 16.8 | 33.5 | 36.5
7 | Nc1c2ccccc2nc2ccccc12 [9-AMINOACRIDINE] | -4.84 | -4.83 | -4.83 | -4.82 | 71 | 85.8 | 89.5 | 80.2 | 59.1 | 70.3 | 74 | 65.1
8 | CC[C@@]1(O)C[C@H](O[C@H]2C[C@H](N(C)C)[C@H](O[C@H]3C[C@H](O)[C@H](O[C@H]4CCC(=O)[C@H](C)O4)[C@H](C)O3)[C@H](C)O2)c2c(cc3c(c2O)C(=O)c2c(O)cccc2C3=O)[C@H]1C(=O)OC [ACLARUBICIN] | -5.38 | -6.79 | -5.35 | -5.33 | 58.7 | 62.1 | 65.6 | 62.1 | 96.6 | 173 | 118 | 111
9 | CCCCC(CC)CNC(=N)NC(=N)NCCCCCCNC(=N)NC(=N)NCC(CC)CCCC (stereo not drawn) [ALEXIDINE] | -6.06 | -5.67 | -5.64 | -5.48 | 63.3 | 78.2 | 80.3 | 73.3 | 130 | 126 | 126 | 105
10 | CNC(=O)c1ccccc1Sc1ccc2c(/C=C/c3ccccn3)n[nH]c2c1 [AXITINIB] | -6.07 |  | -5.96 | -6.35 | 21.1 |  | 23.3 | 28.6 | 45.4 | 55.3 | 46.3 | 67.6
11 | Clc1ccccc1C(c1ccccc1)(c1ccccc1)n1ccnc1 [CLOTRIMAZOLE] | -4.92 |  | -5.21 | -5.22 | 29.5 |  | 23 | 26.3 | 27.2 | 13.3 | 27.8 | 31.5
12 | Cc1nc2c([nH]1)-c1ccccc1N(C(=O)c1ccc(NC(=O)c3ccccc3-c3ccccc3)cc1)CC2 [CONIVAPTAN] | -4.73 | -4.59 | -4.73 |  | 26.5 | 36 | 83.9 |  | 29.9 | 35.9 | 60.9 | 6.44
13 | O=c1[nH]c(=O)n([C@H]2C[C@H](O)[C@@H](CO)O2)cc1F [FLOXURIDINE] | -5.39 |  |  |  | 30 |  |  |  | 46.2 | 18.8 | 26.8 | 23.5
14 | Nc1ccn([C@@H]2O[C@H](CO)[C@@H](O)C2(F)F)c(=O)n1 [GEMCITABINE] | -8.08 |  |  |  | 20.3 |  |  |  | 81.9 | 83.9 | 68.9 | 54.2
15 | CCNc1nc(Nc2cc(F)c(C(=O)N3CCOCC3)cc2OC)ncc1C(F)(F)F [GNE-7915] | -4.82 |  | -4.79 |  | 28.7 |  | 38.7 |  | 23.5 | 15.9 | 29.7 | 21.1
